Laboratory results published in patent EP0089901A1, “New 2-oxo-1-pyrrolidineacetic acid esters, their methods of production and therapeutic compositions containing the same” (PRODES S.A., priority 1982, dated 1983).

Tests used:
[1] = test system: anesthetized dogs; test: Electromagnetic blood flow measurement (vertebral/cerebral blood flow); assay type: in vivo; conditions: vertebral blood flow
Description: After orotraqueal intubation, artificial respiration with normal air was instituted using a Manley Pulmovent respirator. The correct ventilation of the dogs was checked after all the surgical procedures by determining the p02, pC02, and pH in arterial blood samples, as well as several times during the experiment by means of an Astrup apparatus. Blood pressure was measured in left saphenous artery by means of a Bell & Howell pressure transducer, and the heart rate by means of a Beckman ECG device. Recordings were made on an ink-writing Beckman polygraph. Left saphenous vein and right saphenous artery were cannulated with polyethylene catheters for drug administration and blood collection respectively.
Vertebral blood flow was measured by a non-cannulating electro-magnetic flowmeter (Carolina Medical Electronics) placed in the vertebral artery.
The Carolina digital flowmeter was connected to an Omniscribe Houston Instruments plotter.
Piracetam and nicotinic acid were used as control drugs.

[2] = LD50 of representative compounds; conditions: in vivo
Text: LD50 of representative compounds included in Table III.

[3] = test system: animals; test: Unspecific protection against lethality: hypoxia-hypobara (decompression), survival time; assay type: in vivo; conditions: survival time under decompression
Text: We have chosen the hypoxia-hypobara : the decompression kills the animals, because of the lack of 02.

[4] = test system: animals; test: Unspecific protection against lethality: anoxia by CNK, survival time; assay type: in vivo; conditions: survival time after CNK
[5] = test system: mouse; test: Unspecific protection against lethality: gasping time after quick decapitation; assay type: in vivo; conditions: gasping time after decapitation of mouse
Description: The second trial is the quick decapitation of mouse. The head has a typical mandibular movement, known as gasping, as searching the breathing air.

Q: Which EFFECT ([1]; DOSE 0.5 mg/kg) does the source give for `COc1ccc(Cc2nccc3cc(OC)c(OC)cc23)cc1OC` [Papaverine] here?
A: Active

Q: With `CC1CC(OC(=O)CN2CCCC2=O)CC(C)(C)C1` (mixture of isomers) [cis/trans 3,3,5-trimethylcyclohexyl 2-oxo-l-pyrrolidineacetate] as the compound, how does the LD50 [2] read?
A: 3170 mg/kg

Q: And the “HYPOXIA HYPOBARA” value ([3]; DOSE 500mg/kg)?
A: Active

Q: And the EFFECT ([1]; DOSE 1 mg/kg)?
A: Active

Q: What about the “ANOXIA BY CNK” value ([4]; DOSE 500mg/kg) of the same compound?
A: Very active

Q: What about the GASPING ([5]; DOSE 500mg/kg) of the same compound?
A: Very active

Q: Which results are given for `NC(=O)CN1CCCC1=O` [Piracetam, 2-oxo-1-pyrrolidineacetamide, reference compound]?
A: HYPOXIA HYPOBARA ([3]; DOSE 1000mg/kg): No effect; EFFECT ([1]; no dose given): No effect; ANOXIA BY CNK ([4]; DOSE 1000mg/kg): No effect; GASPING ([5]; DOSE 1000mg/kg): No effect

Q: Which EFFECT ([1]; no dose given) does the source give for `O=C(O)c1cccnc1` [Nicotinic acid] here?
A: No effect

Q: What does the source list for `O=C1NC(=O)C(c2ccccc2)(c2ccccc2)N1` [Difenilhydantoine, reference compound]?
A: HYPOXIA HYPOBARA ([3]; DOSE 100mg/kg): Active; ANOXIA BY CNK ([4]; DOSE 100mg/kg): Active; GASPING ([5]; DOSE 100mg/kg): Very active

Q: What does the source list for `CCC(C(=O)OC1CC(C)CC(C)(C)C1)N1CCCC1=O` (stereo not drawn) [cis 3,3,5-trimethylcyclohexyl 2-(2-oxo-l-pyrrolidinyl)butyrate]?
A: LD50 [2]: 2850 mg/kg; HYPOXIA HYPOBARA ([3]; DOSE 500mg/kg): Active; EFFECT ([1]; DOSE 0.5 mg/kg): Active; ANOXIA BY CNK ([4]; DOSE 500mg/kg): Very active; GASPING ([5]; DOSE 500mg/kg): Very active
